Assay results: patent US10617693B2, “Methods of treating and/or preventing actinic keratosis” (Athenex, Inc., priority 2017, dated 2020)

Key:
[1] = tested on: subjects with AK on the dorsal forearm; conditions: human, in vivo
Method: (§1) A Phase 1, single-center, safety, tolerability and pharmacokinetic study of KX-01 was performed on subjects with AK on the dorsal forearm. This was an open-label, uncontrolled, nonrandomized, sequential group clinical trial conducted at a single investigational center in the United States. The primary objectives of the study were to assess the safety, tolerability and pharmacokinetics of KX-01 in subjects with AK. The secondary objective was to evaluate the activity of KX-01 administered topically to the dorsal forearm in subjects with AK.
(§2) KX-01 was administered topically on treatment days. All subjects were monitored for safety and tolerability that included LSRs, AEs, vital signs, clinical laboratory tests, ECGs, and physical examinations at baseline and at pre-defined time points during treatment and follow-up on days 1, 2, 3, 4, 5, 8, 10, 17, 31 and 45.
(§3) LSRs (erythema, flaking/scaling, crusting, swelling, vesiculation/pustulation, erosion/ulceration) were assessed by the investigator or trained designee using a 4-point scale according to the protocol. The subject's assessment of the symptoms (stinging/burning, pruritus) associated with irritation of the treatment area was evaluated on a 4-point scale (0=none, 1=mild, 2=moderate, 3=severe). Subjects were queried for spontaneously reported AEs at each study visit before assessment of LSRs. LSRs and AEs were reported separately. All LSRs were to be followed to resolution or stabilization.

[2] = tested on: subjects with AK on the dorsal forearm; test: Phase 1 study KX01-AK-01-US: local skin reactions (investigator score 0 none to 4 severe; subject score 0 none to 3 severe) and adverse events
Method: as §1, §2, §3

[3] = Cohort 1: 0.5 mg/25 cm^2 QD x3 days, N=4
[4] = Cohort 2: 2 mg/100 cm^2 QD x3 days, N=10
[5] = Cohort 3: 0.5 mg/25 cm^2 QD x5 days, N=8

SMILES: O=C(Cc1ccc(-c2ccc(OCCN3CCOCC3)cc2)cn1)NCc1ccccc1 [KX-01]
- Serious adverse event (SAE) or death [1]: no serious adverse event (SAE) or death
- Day LSRs tended to peak ([2]; 3-day treatment cohorts (Cohorts 1 and 2)): ~5 days
- Day LSRs tended to peak ([2]; 5-day treatment cohorts (Cohorts 3 and 4)): ~10 days
- Burning (subject-assessed) max score 0, number of subjects [2, 3]: 4
- Burning (subject-assessed) max score 1, number of subjects [2, 3]: 0
- Burning (subject-assessed) max score 2, number of subjects [2, 3]: 0
- Burning (subject-assessed) max score 3, number of subjects [2, 3]: 0
- Crusting max score 0, number of subjects [2, 3]: 4
- Crusting max score 1, number of subjects [2, 3]: 0
- Crusting max score 2, number of subjects [2, 3]: 0
- Crusting max score 3, number of subjects [2, 3]: 0
- Crusting max score 4, number of subjects [2, 3]: 0
- Erosions/ulcers max score 0, number of subjects [2, 3]: 4
- Erosions/ulcers max score 1, number of subjects [2, 3]: 0
- Erosions/ulcers max score 2, number of subjects [2, 3]: 0
- Erosions/ulcers max score 3, number of subjects [2, 3]: 0
- Erosions/ulcers max score 4, number of subjects [2, 3]: 0
- Erythema max score 0, number of subjects [2, 3]: 0
- Erythema max score 1, number of subjects [2, 3]: 2
- Erythema max score 2, number of subjects [2, 3]: 1
- Erythema max score 3, number of subjects [2, 3]: 1
- Erythema max score 4, number of subjects [2, 3]: 0
- Flaking/scaling max score 0, number of subjects [2, 3]: 0
- Flaking/scaling max score 1, number of subjects [2, 3]: 3
- Flaking/scaling max score 2, number of subjects [2, 3]: 0
- Flaking/scaling max score 3, number of subjects [2, 3]: 1
- Flaking/scaling max score 4, number of subjects [2, 3]: 0
- Pruritus (subject-assessed) max score 0, number of subjects [2, 3]: 3
- Pruritus (subject-assessed) max score 1, number of subjects [2, 3]: 1
- Pruritus (subject-assessed) max score 2, number of subjects [2, 3]: 0
- Pruritus (subject-assessed) max score 3, number of subjects [2, 3]: 0
- Stinging (subject-assessed) max score 0, number of subjects [2, 3]: 3
- Stinging (subject-assessed) max score 1, number of subjects [2, 3]: 1
- Stinging (subject-assessed) max score 2, number of subjects [2, 3]: 0
- Stinging (subject-assessed) max score 3, number of subjects [2, 3]: 0
- Swelling max score 0, number of subjects [2, 3]: 4
- Swelling max score 1, number of subjects [2, 3]: 0
- Swelling max score 2, number of subjects [2, 3]: 0
- Swelling max score 3, number of subjects [2, 3]: 0
- Swelling max score 4, number of subjects [2, 3]: 0
- Vesicles/pustules max score 0, number of subjects [2, 3]: 4
- Vesicles/pustules max score 1, number of subjects [2, 3]: 0
- Vesicles/pustules max score 2, number of subjects [2, 3]: 0
- Vesicles/pustules max score 3, number of subjects [2, 3]: 0
- Vesicles/pustules max score 4, number of subjects [2, 3]: 0
- Burning (subject-assessed) max score 0, number of subjects [2, 4]: 6
- Burning (subject-assessed) max score 1, number of subjects [2, 4]: 3
- Burning (subject-assessed) max score 2, number of subjects [2, 4]: 1
- Burning (subject-assessed) max score 3, number of subjects [2, 4]: 0
- Crusting max score 0, number of subjects [2, 4]: 5
- Crusting max score 1, number of subjects [2, 4]: 5
- Crusting max score 2, number of subjects [2, 4]: 0
- Crusting max score 3, number of subjects [2, 4]: 0
- Crusting max score 4, number of subjects [2, 4]: 0
- Erosions/ulcers max score 0, number of subjects [2, 4]: 10
- Erosions/ulcers max score 1, number of subjects [2, 4]: 0
- Erosions/ulcers max score 2, number of subjects [2, 4]: 0
- Erosions/ulcers max score 3, number of subjects [2, 4]: 0
- Erosions/ulcers max score 4, number of subjects [2, 4]: 0
- Erythema max score 0, number of subjects [2, 4]: 0
- Erythema max score 1, number of subjects [2, 4]: 6
- Erythema max score 2, number of subjects [2, 4]: 2
- Erythema max score 3, number of subjects [2, 4]: 2
- Erythema max score 4, number of subjects [2, 4]: 0
- Flaking/scaling max score 0, number of subjects [2, 4]: 1
- Flaking/scaling max score 1, number of subjects [2, 4]: 2
- Flaking/scaling max score 2, number of subjects [2, 4]: 1
- Flaking/scaling max score 3, number of subjects [2, 4]: 6
- Flaking/scaling max score 4, number of subjects [2, 4]: 0
- Pruritus (subject-assessed) max score 0, number of subjects [2, 4]: 4
- Pruritus (subject-assessed) max score 1, number of subjects [2, 4]: 6
- Pruritus (subject-assessed) max score 2, number of subjects [2, 4]: 0
- Pruritus (subject-assessed) max score 3, number of subjects [2, 4]: 0
- Stinging (subject-assessed) max score 0, number of subjects [2, 4]: 8
- Stinging (subject-assessed) max score 1, number of subjects [2, 4]: 2
- Stinging (subject-assessed) max score 2, number of subjects [2, 4]: 0
- Stinging (subject-assessed) max score 3, number of subjects [2, 4]: 0
- Swelling max score 0, number of subjects [2, 4]: 8
- Swelling max score 1, number of subjects [2, 4]: 2
- Swelling max score 2, number of subjects [2, 4]: 0
- Swelling max score 3, number of subjects [2, 4]: 0
- Swelling max score 4, number of subjects [2, 4]: 0
- Vesicles/pustules max score 0, number of subjects [2, 4]: 10
- Vesicles/pustules max score 1, number of subjects [2, 4]: 0
- Vesicles/pustules max score 2, number of subjects [2, 4]: 0
- Vesicles/pustules max score 3, number of subjects [2, 4]: 0
- Vesicles/pustules max score 4, number of subjects [2, 4]: 0
- Burning (subject-assessed) max score 0, number of subjects [2, 5]: 4
- Burning (subject-assessed) max score 1, number of subjects [2, 5]: 3
- Burning (subject-assessed) max score 2, number of subjects [2, 5]: 1
- Burning (subject-assessed) max score 3, number of subjects [2, 5]: 0
